The substances below were run on HeLa cell (assay: Cell penetration of pep(CPP)-FITC conjugate in HeLa cell line, flow cytometry (FACS)). Conditions: HeLa cells, 20 uM FITC-fused peptide, 37° C. for an hour, control = FITC only.
Format: cell-based, Homo sapiens
Protocol: Homo sapiens cervix adenocarcinoma cell line as HeLa cell lines were purchased from ATCC (American Type Cell Culture). The cells were cultured in MEM supplemented with 10% fetal bovine serum (Invitrogen, USA), Earle's salts, non-essential amino acids, sodium pyruvate and 100 μg/ml penicillin and 10 units/ml streptomycin and cultured at 37° C., 5% CO2 incubator.
Flow cytometry and Confocal microscope analysis were performed to compare the between degree of cellular uptake of the cells were treated with SEQ ID NO: 2 to SEQ ID NO: 178, pep (CPP) and control.
The cell line was divided in a 6-well plate and cultured in a medium containing 10% fetal bovine serum (Invitrogen, USA), 100 μg/ml penicillin, 100 units/ml streptomycin at 37° C. 5% CO2 incubator for 12 hours. After washing the cell line with PBS, starvation was induced in a Minimum Essential Medium for an hour. 20 uM of each carrier peptide was treated and cultured at 37° C. for an hour. After repeating the step of washing the cells with PBS for three times, Trypsin-EDTA was treated form 10 mins at 37° C. to separate the carrier peptide on the outside of the cell. cells were collected with refrigerated PBS and centrifugation was performed to repeat the step of washing the cells for three times. After then, the cells were suspended in 0.5 ml of PBS containing 4% Paraformaldehyde and fluorescence of the cells was analyzed using FACS Calibur (Becton Dickinson). The cellular uptake aspect of control and various peptides combined with FITC was compared and analyzed by MFI (Mean Fluorescence Intensity).
Analysis results shown in FIGS. 2 to 29 are given in detail in Table 7 below.

| Substance | cellular uptake, MFI (Mean Fluorescence Intensity) |
| --- | --- |
| LTS (listed as Homo sapiens) [Pep-RIA-158] | 9.91 ± 1.44 |
| REARPALLTSRLRFIPKPDGLR (listed as Homo sapiens) [Pep-RIA-39] | 15.84 ± 0.79 |
| RLRFIPK (listed as Homo sapiens) [Pep-RIA-99] | 17.45 ± 0.19 |
| VRQHREARPALLTSRLRFIPKPDGLRPI (listed as Homo sapiens) [Pep-RIA-59] | 22.69 ± 0.66 |
| LLTSR (listed as Homo sapiens) [Pep-RIA-150] | 14.51 ± 0.81 |
| REARPALLTSRLRFIPKPDG (listed as Homo sapiens) [Pep-RIA-23] | 16.57 ± 0.68 |
| EARPALLTSRLRFIPKPDGLRPI (listed as Homo sapiens) [Pep-RIA-70] | 16.32 ± 0.44 |
| REARPALLTSRLRFIPKPDGL (listed as Homo sapiens) [Pep-RIA-30] | 15.34 ± 0.55 |
| LLTSRLR (listed as Homo sapiens) [Pep-RIA-149] | 16.2 ± 0.22 |
| SEAEVRQHREARPALLTSRLRFIPK (listed as Homo sapiens) [Pep-RIA-9] | 12.7 ± 0.25 |
| REARPALLTSRLRFIPKP (listed as Homo sapiens) [Pep-RIA-15] | 16.32 ± 0.36 |
| EARPALLTS (listed as Homo sapiens) [Pep-RIA-84] | 10.32 ± 0.49 |
| REARPALLTSRLRFIPKPDGLRPI (listed as Homo sapiens) [Pep-RIA-63] | 19.72 ± 0.33 |
| RPA (listed as Homo sapiens) [Pep-RIA-129] | 11.18 ± 0.97 |
| HREARPALLTSRLRFIPKPDGLR (listed as Homo sapiens) [Pep-RIA-38] | 18.02 ± 0.71 |
| EVRQHREARPALLTSRLRFIPKPDG (listed as Homo sapiens) [Pep-RIA-42] | 15.27 ± 1.65 |
| LLT (listed as Homo sapiens) [Pep-RIA-152] | 12.58 ± 0.47 |
| ARP (listed as Homo sapiens) [Pep-RIA-120] | 10.04 ± 0.53 |
| LSEAEVRQHREARPALLTSRLRFIPK (listed as Homo sapiens) [Pep-RIA-10] | 14.64 ± 0.76 |
| AEVRQHREARPALLTSRLRFIPKPDGLRPI (listed as Homo sapiens) [Pep-RIA-57] | 16.75 ± 0.48 |
| LRELSEAEVRQHREARPALLTSRLRFIPK (listed as Homo sapiens) [Pep-RIA-13] | 15.37 ± 1.34 |
| RPALLTSRLRF (listed as Homo sapiens) [Pep-RIA-122] | 23.8 ± 1.54 |
| VRQHREARPALLTSRLRFIPKPDGL (listed as Homo sapiens) [Pep-RIA-34] | 16.37 ± 0.97 |

| Substance | cellular uptake, MFI (Mean Fluorescence Intensity) |
| --- | --- |
| LRFIP (listed as Homo sapiens) [Pep-RIA-174] | 5.66 ± 0.33 |
| PALLTSRLRFIP (listed as Homo sapiens) [Pep-RIA-130] | 18.54 ± 1.64 |
| ARPALLTSRLRFIP (listed as Homo sapiens) [Pep-RIA-104] | 22.51 ± 0.96 |
| ARPA (listed as Homo sapiens) [Pep-RIA-119] | 11.19 ± 0.61 |
| ARPALL (listed as Homo sapiens) [Pep-RIA-117] | 15.06 ± 0.58 |
| RPALLTSRLR (listed as Homo sapiens) [Pep-RIA-123] | 17.31 ± 0.68 |
| ARPALLTSRLRFIPK (listed as Homo sapiens) [Pep-RIA-91] | 19.96 ± 0.51 |
| EARPALLTSRLRFIP (listed as Homo sapiens) [Pep-RIA-78] | 13.95 ± 0.57 |
| LLTSRLRFI (listed as Homo sapiens) [Pep-RIA-147] | 14.93 ± 1.55 |
| EARPALLTSRLR (listed as Homo sapiens) [Pep-RIA-81] | 14.63 ± 0.22 |
| EVRQHREARPALLTSRLRFIPKPDGLRP (listed as Homo sapiens) [Pep-RIA-45] | 14.23 ± 1.65 |
| AEVRQHREARPALLTSRLRFIPKP (listed as Homo sapiens) [Pep-RIA-51] | 15.13 ± 1.03 |
| VRQHREARPALLTSRLRFIPKPDGLR (listed as Homo sapiens) [Pep-RIA-35] | 13.22 ± 0.34 |
| RPALLTSRLRFIPK (listed as Homo sapiens) [Pep-RIA-92] | 26.28 ± 0.38 |
| RQHREARPALLTSRLRFIPKPDGLR (listed as Homo sapiens) [Pep-RIA-36] | 14.07 ± 0.41 |
| LLTSRLRFIP (listed as Homo sapiens) [Pep-RIA-146] | 17.43 ± 0.49 |
| LTSR (listed as Homo sapiens) [Pep-RIA-109] | 9.37 ± 0.31 |
| EARPALLTSRLRFIPKP (listed as Homo sapiens) [Pep-RIA-64] | 15.51 ± 0.58 |
| RPALLTS (listed as Homo sapiens) [Pep-RIA-125] | 11.07 ± 0.55 |
| REARPALLTSRLRFIPK (listed as Homo sapiens) [Pep-RIA-1] | 24.3 ± 0.61 |
| RQHREARPALLTSRLRFIPKPDGLRP (listed as Homo sapiens) [Pep-RIA-47] | 17.6 ± 0.82 |
| REARPALLTSRLRFIPKPDGLRP (listed as Homo sapiens) [Pep-RIA-50] | 15.47 ± 0.73 |
| SRLRFIP (listed as Homo sapiens) [Pep-RIA-165] | 5.75 ± 0.41 |

| Substance | cellular uptake, MFI (Mean Fluorescence Intensity) |
| --- | --- |
| LRFIPK (listed as Homo sapiens) [Pep-RIA-100] | 14.69 ± 1.48 |
| VRQHREARPALLTSRLRFIPKPDG (listed as Homo sapiens) [Pep-RIA-33] | 15.04 ± 0.68 |
| LLTSRL (listed as Homo sapiens) [Pep-RIA-108] | 14.59 ± 0.17 |
| RPALLT (listed as Homo sapiens) [Pep-RIA-126] | 11.51 ± 1.84 |
| RPAL (listed as Homo sapiens) [Pep-RIA-128] | 12.41 ± 0.16 |
| RELSEAEVRQHREARPALLTSRLRFIPK (listed as Homo sapiens) [Pep-RIA-12] | 12.93 ± 0.18 |
| EARPALLT (listed as Homo sapiens) [Pep-RIA-85] | 10.1 ± 0.34 |
| ARPALLTSRLRF (listed as Homo sapiens) [Pep-RIA-111] | 20.53 ± 0.21 |
| RPALL (listed as Homo sapiens) [Pep-RIA-127] | 12.15 ± 0.89 |
| ARPALLT (listed as Homo sapiens) [Pep-RIA-116] | 11.32 ± 0.99 |
| ARPALLTSRLR (listed as Homo sapiens) [Pep-RIA-112] | 15.96 ± 1.24 |
| SRLRFIPK (listed as Homo sapiens) [Pep-RIA-98] | 14.04 ± 1.55 |
| ARPALLTSRLRFI (listed as Homo sapiens) [Pep-RIA-110] | 11.89 ± 0.68 |
| ALLTSRLRFIPK (listed as Homo sapiens) [Pep-RIA-94] | 21.07 ± 1.56 |
| QLRELSEAEVRQHREARPALLTSRLRFIPK (listed as Homo sapiens) [Pep-RIA-14] | 23.67 ± 1.22 |
| HREARPALLTSRLRFIPKPDGLRPI (listed as Homo sapiens) [Pep-RIA-62] | 18.89 ± 0.75 |
| HREARPALLTSRLRFIPKPDGL (listed as Homo sapiens) [Pep-RIA-29] | 15.26 ± 0.95 |
| EARPALLTSRLRFIPKPDGLRP (listed as Homo sapiens) [Pep-RIA-69] | 13.72 ± 0.68 |
| EARPALLTSRLRFIPKPD (listed as Homo sapiens) [Pep-RIA-65] | 12.84 ± 1.11 |
| PALLTSRLRFI (listed as Homo sapiens) [Pep-RIA-131] | 13.66 ± 0.87 |
| PALLTSRL (listed as Homo sapiens) [Pep-RIA-133] | 12.95 ± 0.69 |
| EARPALLTSRLRFIPKPDGLRPIVNMDYV (listed as Homo sapiens) [Pep-RIA-76] | 22.07 ± 0.64 |
